Laboratory results taken from patent US20070049564A1 (Wyeth, priority 2005, published 2007).
Values after ≈ are worked out from the molar mass of the structure shown. Like-named read-outs stand apart in the source and are kept apart here.

Tests used:
S. aureus GC 6467 = test: MIC, broth microdilution; details: Staphylococcus aureus
Method: (§1) Antimicrobial susceptibility testing. The in vitro activities of the antibiotics are determined by the broth microdilution method as recommended by the National Committee for Clinical Laboratory Standards (NCCLS) (1). Mueller-Hinton II broth (MHBII)(BBL Cockeysville, Md.) is the medium employed in the testing procedures. Microtiter plates containing serial dilutions of each antimicrobial agent are inoculated with each organism to yield the appropriate density (10^5 CFU/ml) in a 100 μl final volume. The plates are incubated for 18-22 hours at 35° C. in ambient air.
(§2) Representative compounds were first incubated in mouse serum for an hour prior to the in vitro testing against a panel of selected gram-positive and gram-negative bacteria strains. All compounds were also pre-incubated in water for an hour prior to testing as control.

E. coli GC 2203 = test: MIC, broth microdilution; details: Escherichia coli
Method: (§3) Antimicrobial susceptibility testing. The in vitro activities of the antibiotics are determined by the broth microdilution method as recommended by the National Committee for Clinical Laboratory Standards (NCCLS) (1). Mueller-Hinton II broth (MHBII)(BBL Cockeysville, Md.) is the medium employed in the testing procedures. Microtiter plates containing serial dilutions of each antimicrobial agent are inoculated with each organism to yield the appropriate density (10^5 CFU/ml) in a 100 μl final volume. The plates are incubated for 18-22 hours at 35° C. in ambient air. […] Standard Pharmacological Test Procedures
(§4) Presented in Tables I-XIII are representative compounds of Formula I which were evaluated against a panel of 40 selected gram-positive and gram-negative bacteria strains by pre-incubation in water, mouse serum or human serum. Representative compounds were first incubated in mouse serum for an hour prior to the in vitro testing against a panel of selected gram-positive and gram-negative bacteria strains. All compounds were also pre-incubated in water for an hour prior to testing as control. Representative compounds of Formula I were incubated in human serum prior to MIC determination.

E. faecalis GC 4555 = test: MIC, broth microdilution; details: Enterococcus faecalis
E. coli GC 6465 = test: MIC, broth microdilution; details: Escherichia coli
E. coli GC 2235 = test: MIC, broth microdilution; details: Escherichia coli
S. epidermidis GC 4935 = test: MIC, broth microdilution; details: Staphylococcus epidermidis
Method: as §1
(§5) Representative compounds were first incubated in mouse serum for an hour prior to the in vitro testing against a panel of selected gram-positive and gram-negative bacteria strains. All compounds were also pre-incubated in water for an hour prior to testing as control. Representative compounds of Formula I were incubated in human serum prior to MIC determination.

E. coli GC 4560 = test: MIC, broth microdilution; details: Escherichia coli
S. typhimurium GC 2172 = test: MIC, broth microdilution; details: Salmonella enterica, TYPHIMURIUM
S. pneumoniae* GC 4465 = test: MIC, broth microdilution; details: Streptococcus pneumoniae
E. faecalis GC 2267 = test: MIC, broth microdilution; details: Enterococcus faecalis
E. faecium GC 4556 = test: MIC, broth microdilution; details: Enterococcus faecium
S. aureus GC 1079 = test: MIC, broth microdilution; details: Staphylococcus aureus
E. coli GC 2234 = test: MIC, broth microdilution; details: Escherichia coli
S. aureus GC 1131 = test: MIC, broth microdilution; details: Staphylococcus aureus
Method: as §1, §2

E. coli GC 2231 = test: MIC, broth microdilution; details: Escherichia coli
E. coli GC 2272 = test: MIC, broth microdilution; details: Escherichia coli
Method: as §1, §5

E. coli GC 2236 = test: MIC, broth microdilution; details: Escherichia coli
Staph. = test: Range of MIC for Staph. strains, including MRSA; details: Staphylococcus aureus
E. coli GC 2233 = test: MIC, broth microdilution; details: Escherichia coli
S. aureus GC 6466 = test: MIC, broth microdilution; details: Staphylococcus aureus
Method: as §3, §4

CCCCC(=O)OCOC(=O)N(CC(=O)Nc1cc(N(C)C)c2c(c1O)C(=O)C1=C(O)[C@]3(O)C(=O)C(C(N)=O)=C(O)[C@@H](N(C)C)[C@@H]3C[C@@H]1C2)C(C)(C)C [Example 61, ({[(2-{[(5aR,6aS,7S,10aS)-9-(aminocarbonyl)-4,7-bis(dimethylamino)-1,8,10a,11-tetrahydroxy-10,12-dioxo-5,5a,6,6a,7,10,10a,12-octahydrotetracen-2-yl]amino}-2-oxoethyl)(tert-butyl)amino]carbonyl}oxy)methyl pentanoate]
MIC (S. aureus GC 6467; GC6467, pre-incubation in human serum): 0.5 mg/L (≈ 0.672 µM)
MIC (S. aureus GC 6467; GC6467, pre-incubation in mouse serum): 0.5 mg/L (≈ 0.672 µM)
MIC (S. aureus GC 6467; GC6467, pre-incubation in water): 1 mg/L (≈ 1.34 µM)
MIC (E. coli GC 2203; GC2203, pre-incubation in human serum): 8 mg/L (≈ 10.8 µM)
MIC (E. coli GC 2203; GC2203, pre-incubation in mouse serum): 0.5 mg/L (≈ 0.672 µM)
MIC (E. coli GC 2203; GC2203, pre-incubation in water): 32 mg/L (≈ 43 µM)
MIC (E. faecalis GC 4555; GC4555, pre-incubation in human serum): 2 mg/L (≈ 2.69 µM)
MIC (E. faecalis GC 4555; GC4555, pre-incubation in mouse serum): 1 mg/L (≈ 1.34 µM)
MIC (E. faecalis GC 4555; GC4555, pre-incubation in water): 2 mg/L (≈ 2.69 µM)
MIC (E. coli GC 6465; GC6465, pre-incubation in human serum): 32 mg/L (≈ 43 µM)
MIC (E. coli GC 6465; GC6465, pre-incubation in mouse serum): 1 mg/L (≈ 1.34 µM)
MIC (E. coli GC 6465; GC6465, pre-incubation in water): > 64 mg/L
MIC (E. coli GC 2235; GC2235, pre-incubation in human serum): 4 mg/L (≈ 5.38 µM)
MIC (E. coli GC 2235; GC2235, pre-incubation in mouse serum): 0.5 mg/L (≈ 0.672 µM)
MIC (E. coli GC 2235; GC2235, pre-incubation in water): 16 mg/L (≈ 21.5 µM)
MIC (S. epidermidis GC 4935; GC4935, pre-incubation in human serum): 1 mg/L (≈ 1.34 µM)
MIC (S. epidermidis GC 4935; GC4935, pre-incubation in mouse serum): 0.5 mg/L (≈ 0.672 µM)
MIC (S. epidermidis GC 4935; GC4935, pre-incubation in water): 1 mg/L (≈ 1.34 µM)
MIC (E. coli GC 4560; GC4560, pre-incubation in human serum): 1 mg/L (≈ 1.34 µM)
MIC (E. coli GC 4560; GC4560, pre-incubation in mouse serum): 0.25 mg/L (≈ 0.336 µM)
MIC (E. coli GC 4560; GC4560, pre-incubation in water): 1 mg/L (≈ 1.34 µM)
MIC (S. typhimurium GC 2172; pre-incubation in human serum): 64 mg/L (≈ 86 µM)
MIC (S. typhimurium GC 2172; pre-incubation in mouse serum): 1 mg/L (≈ 1.34 µM)
MIC (S. typhimurium GC 2172; pre-incubation in water): > 64 mg/L
MIC (S. pneumoniae* GC 4465; pre-incubation in human serum): 0.25 mg/L (≈ 0.336 µM)
MIC (S. pneumoniae* GC 4465; pre-incubation in mouse serum): 0.12 mg/L (≈ 0.161 µM)
MIC (S. pneumoniae* GC 4465; pre-incubation in water): 0.12 mg/L (≈ 0.161 µM)
MIC (E. faecalis GC 2267; GC2267, pre-incubation in human serum): 2 mg/L (≈ 2.69 µM)
MIC (E. faecalis GC 2267; GC2267, pre-incubation in mouse serum): 0.5 mg/L (≈ 0.672 µM)
MIC (E. faecalis GC 2267; GC2267, pre-incubation in water): 2 mg/L (≈ 2.69 µM)
MIC (E. faecium GC 4556; GC4556, pre-incubation in human serum): 2 mg/L (≈ 2.69 µM)
MIC (E. faecium GC 4556; GC4556, pre-incubation in mouse serum): 0.5 mg/L (≈ 0.672 µM)
MIC (E. faecium GC 4556; GC4556, pre-incubation in water): 2 mg/L (≈ 2.69 µM)
MIC (S. aureus GC 1079; GC1079, pre-incubation in human serum): 0.5 mg/L (≈ 0.672 µM)
MIC (S. aureus GC 1079; GC1079, pre-incubation in mouse serum): 0.25 mg/L (≈ 0.336 µM)
MIC (S. aureus GC 1079; GC1079, pre-incubation in water): 1 mg/L (≈ 1.34 µM)
MIC (E. coli GC 2234; GC2234, pre-incubation in human serum): 8 mg/L (≈ 10.8 µM)
MIC (E. coli GC 2234; GC2234, pre-incubation in mouse serum): 0.5 mg/L (≈ 0.672 µM)
MIC (E. coli GC 2234; GC2234, pre-incubation in water): 16 mg/L (≈ 21.5 µM)
MIC (S. aureus GC 1131; GC1131, pre-incubation in human serum): 0.5 mg/L (≈ 0.672 µM)
MIC (S. aureus GC 1131; GC1131, pre-incubation in mouse serum): 0.5 mg/L (≈ 0.672 µM)
MIC (S. aureus GC 1131; GC1131, pre-incubation in water): 0.5 mg/L (≈ 0.672 µM)
MIC (E. coli GC 2231; GC2231, pre-incubation in human serum): 8 mg/L (≈ 10.8 µM)
MIC (E. coli GC 2231; GC2231, pre-incubation in mouse serum): 1 mg/L (≈ 1.34 µM)
MIC (E. coli GC 2231; GC2231, pre-incubation in water): 32 mg/L (≈ 43 µM)
MIC (E. coli GC 2272; GC2272, pre-incubation in human serum): 4 mg/L (≈ 5.38 µM)
MIC (E. coli GC 2272; GC2272, pre-incubation in mouse serum): 0.5 mg/L (≈ 0.672 µM)
MIC (E. coli GC 2272; GC2272, pre-incubation in water): 8 mg/L (≈ 10.8 µM)
MIC (E. coli GC 2236; GC2236, pre-incubation in human serum): 4 mg/L (≈ 5.38 µM)
MIC (E. coli GC 2236; GC2236, pre-incubation in mouse serum): 0.5 mg/L (≈ 0.672 µM)
MIC (E. coli GC 2236; GC2236, pre-incubation in water): 16 mg/L (≈ 21.5 µM)
MIC (Staph.; MRSA, read-out: Range of MIC, Staph (Mouse Serum)): 0.25 to 0.5 mg/L (≈ 0.336 to 0.672 µM)
MIC (Staph.; MRSA, read-out: Range of MIC, Staph (Water)): 0.5 to 2 mg/L (≈ 0.672 to 2.69 µM)
MIC (Staph.; read-out: Minimum inhibitory concentration (MIC), Staph (Human Serum)): 0.5 to 1 mg/L (≈ 0.672 to 1.34 µM)
MIC (Staph.; read-out: Minimum inhibitory concentration (MIC), Staph (Water)): 0.5 to 2 mg/L (≈ 0.672 to 2.69 µM)
MIC (E. coli GC 2233; GC2233, pre-incubation in human serum): 8 mg/L (≈ 10.8 µM)
MIC (E. coli GC 2233; GC2233, pre-incubation in mouse serum): 1 mg/L (≈ 1.34 µM)
MIC (E. coli GC 2233; GC2233, pre-incubation in water): 16 mg/L (≈ 21.5 µM)
MIC (S. aureus GC 6466; GC6466, pre-incubation in human serum): 0.5 mg/L (≈ 0.672 µM)
MIC (S. aureus GC 6466; GC6466, pre-incubation in mouse serum): 0.5 mg/L (≈ 0.672 µM)
MIC (S. aureus GC 6466; GC6466, pre-incubation in water): 0.5 mg/L (≈ 0.672 µM)
